Values joined by “and” are separate entries in the source; they are usually repeats but may differ in a detail not shown here. Equal values may be shown once.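 Exposure lasted 48 hours, with cells grown in 96-well plates and compounds tested at five concentrations. At the GI50, growth is halved. TGI marks complete inhibition of growth.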
What was measured:
Test in all cases: NCI anticancer screen, dose series, 48 h
A549 NSCLC = system: A549 NSCLC
NCI-H226 lung = system: NCI-H226 lung
ACHN renal = system: ACHN renal
MCF7 breast = system: MCF7 breast
TK-10 renal = system: TK-10 renal
MDA-MB-435 = system: MDA-MB-435
EKVX NSCLC = system: EKVX NSCLC
NCI-H23 lung = system: NCI-H23 lung
SW-620 colon = system: SW-620 colon
NCI-H460 lung = system: NCI-H460 lung

SMILES	GI50 (A549 NSCLC)	TGI (A549 NSCLC)	GI50 (NCI-H226 lung)	TGI (NCI-H226 lung)	GI50 (ACHN renal)	TGI (ACHN renal)	GI50 (MCF7 breast)	TGI (MCF7 breast)	GI50 (TK-10 renal)	TGI (TK-10 renal)	GI50 (MDA-MB-435)	TGI (MDA-MB-435)	GI50 (EKVX NSCLC)	TGI (EKVX NSCLC)	GI50 (NCI-H23 lung)	TGI (NCI-H23 lung)	GI50 (SW-620 colon)	TGI (SW-620 colon)	GI50 (NCI-H460 lung)	TGI (NCI-H460 lung)
CCN(CC)CCn1c(=O)c2cc(OC)c(OC)cc2c2ccc3cc4c(cc3c21)OCO4	0.725 µM	8.53 µM	0.446 µM	> 50.6 µM	0.266 µM	12 µM	0.0607 µM	24.8 µM	13.4 µM	30.3 µM	0.795 µM	20.9 µM	12.2 µM	29.4 µM	0.348 µM	11.6 µM	0.692 µM	23.2 µM	0.0766 µM	1.41 µM
CC1(C)N=c2cc3c(cc2N1c1ccc(Cl)cc1)=Nc1ccccc1N3c1ccc(Cl)cc1	5.93 µM	> 100 µM	4.95 µM	> 100 µM	3.53 µM	> 100 µM	2.41 µM	23.4 µM	3.84 µM	67 µM	12.1 µM	> 100 µM	5.31 µM	> 100 µM	3.16 µM	27.9 µM	4.68 µM	21.9 µM	4.78 µM	> 100 µM
CCOC(=O)Nc1ccc2c(c1)C(=O)N(CC)c1ccccc1O2	0.145 µM	> 100 µM	0.796 µM	> 100 µM	0.232 µM	> 100 µM	0.139 µM	> 100 µM	> 100 µM	> 100 µM	0.0311 µM	0.11 µM	0.264 µM	> 100 µM	0.542 µM	> 100 µM	0.0632 µM	> 100 µM	0.116 µM	> 100 µM
FC(F)(F)c1cc(NC(=S)N2c3ccccc3-n3cccc3C2c2cccnc2)cc(C(F)(F)F)c1 (stereo not drawn)	9.25 µM	26.8 µM	22.7 µM	54.7 µM	7.11 µM	62 µM	12.9 µM	32 µM	2.9 µM	9.39 µM	6.57 µM	22.1 µM	9.67 µM	37.8 µM	7.01 µM	20.6 µM	4.31 µM	19.6 µM	10.5 µM	23.4 µM
CC(=O)Nc1ccc(OC(C)=O)cc1	< 0.01 µM	30.8 µM	< 0.01 µM	–	< 0.01 µM	76 µM	< 0.01 µM	> 74.4 µM	10.7 µM	> 100 µM	< 0.01 µM	< 0.01 µM	3 µM	> 78.7 µM	< 0.01 µM	60.3 µM	< 0.01 µM	> 100 µM	< 0.01 µM	16.9 µM
CC1OC(CC(=O)O)Cc2c1c(O)c1c(O)cc(-c3cc(=O)c4c(=O)c5c(c(=O)c=4c3=O)CC(CC(=O)O)OC5C)c(O)c1c2O (stereo not drawn)	53.7 µM	> 100 µM	46.8 µM	> 75.4 µM	43.3 µM	> 81 µM	27.7 µM	–	34 µM	> 93 µM	16.8 µM	36.7 µM	26.1 µM	18.3 µM and 74.5 µM	32.7 µM	33.9 µM	22 µM	22.5 µM	35 µM	> 100 µM
FC(F)(F)c1nc(SCc2ccc(Cl)cc2)n[nH]1	–	> 100 µM	–	> 100 µM	–	> 100 µM	–	> 100 µM	–	> 100 µM	–	> 100 µM	–	> 100 µM	–	> 100 µM	–	> 100 µM	–	> 100 µM
CC(C)=Cc1cccc2[nH]c(O)c(N=Nc3ccc(S(N)(=O)=O)cc3)c12	4.1 µM	> 25 µM	> 6.16 µM	> 25 µM	2.09 µM	> 25 µM	1.04 µM	> 25 µM	2.29 µM	> 25 µM	> 21.4 µM	> 25 µM	> 25 µM	> 25 µM	7.25 µM	> 25 µM	1.14 µM	> 25 µM	1.32 µM	> 20.5 µM
O=C1OC(c2ccc(Cl)cc2)=N/C1=C\c1ccccc1	–	> 100 µM	–	> 100 µM	–	> 100 µM	–	> 100 µM	–	> 100 µM	–	> 100 µM	–	> 100 µM	–	> 100 µM	–	> 100 µM	–	> 100 µM
CC1(C)CCc2c(c(N=Nc3ccccc3F)c3ccccc3c2O)O1	34 µM	> 100 µM	38.7 µM	> 100 µM	22 µM	52.5 µM	> 100 µM	> 100 µM	68.2 µM	> 100 µM	> 100 µM	> 100 µM	> 100 µM	> 100 µM	16.8 µM	58.6 µM	32.8 µM	> 100 µM	38.3 µM	> 100 µM
COc1ccc2nc3c(cc2c1)C(=O)CC(c1ccccc1)C3 (stereo not drawn)	2.05 µM	> 100 µM	2.53 µM	> 100 µM	0.853 µM	> 100 µM	3.54 µM	> 100 µM	> 100 µM	> 100 µM	0.137 µM	0.38 µM	5.81 µM	> 100 µM	5.4 µM	> 100 µM	0.727 µM	> 100 µM	1.44 µM	> 100 µM

Source: PubChem BioAssay (NCI)
